Molecules are shown by their SMILES.

Two compounds from US20050143346A1, “Composition for treating cancer containing n,n-dimethylphytosphingosine” (priority 2002, published 2005) can be followed below.

Experiment [1] concerns HL60 cells. The experiment can be described thus: DNA fragmentation by agarose gel electrophoresis. It counts as cell-based. To be noted: 24 hrs, FIG. 9. As to the method: DNA fragmentation as a representative characteristic of apoptosis was assessed at a level of concentration including cytotoxicity. Apoptosis is a programmed cell death, characterized by complicate biological characteristics including morphological changes, chromatin condensation, a formation of apoptotic body and the like. This experiment was performed to assess DNA fragmentation among them. HL60 cells were seeded (1×10^7 cell/10 ml), and incubated in 5% CO2 incubator at 37° C. for 24 hrs. Then, N,N-dimethylphytosphingosine and control substances (at concentration indicated in FIG. 9) was added and incubated for 24 hrs. All of substances were dissolved in EtOH. Cells were recovered by centrifugation, and then cell membrane was disrupted by adding lysis buffer (5 mM Tris-HCl (PH 7.4), 20 mM EDTA, 0.5% Triton X-100). After centrifuging at 12,000 rpm for 10 min, supernatant in which DNA fragments were dissolved was recovered. To the supernatant was added equivalent amount of phenol, vortexed, centrifuged at 12,000 rpm for 10 min, and then supernatant was recovered carefully. DNA extraction with phenol:chloroform:isoamylalcohol (25:24:1) or chloroform was performed in a same manner as the method with phenol. To the supernatant which was treated by various solvents was added a solution of 0.3 M sodium acetate (pH 5.2) in EtOH, and precipitated in a freezer at −20° C. for 24 hrs. After centrifuging at 12,000 rpm for 10 min, supernatant was decanted to obtain DNA pellets. 70% EtOH was added to the remaining DNA pellets to wash them. Again, after centrifuging, supernatant was discarded, the remaining DNA fragments were dissolved in TE buffer. To remove RNA in addition-to DNA fragments, […] of 0.5 mg/ml RNAse was added, and reacted at 37° C. for 30 min. DNA fragmentation was found by 1.2% agarose gel electrophoresis. […] N-acylsphingosine was known as apoptosis inducing substance, and DNA fragmentation was one example of such effects. […] Accordingly, it is considered that N,N-dimethylphytosphingosine of the present invention has excellent apoptosis inducing effect compared to N-acylsphingosine. It was not observed that CLA ceramide belonging to sphingosineceramide induced DNA fragmentation.
The following is the meaning of the symbols used in FIG. 9. • SM: DNA size marker • EtOH: Ethanol • 1: DMPS 12.5 μM • 2: DMPS 25.0 μM • 3: DMPS 50.0 μM • 4: C2 ceramide 25.0 μM • 5: C2 ceramide 50.0 μM • 6: CLA ceramide 25.0 μM • 7: CLA ceramide 50.0 μM

The subject of experiment [2] is sphingosine kinase from mouse. The experiment can be described thus: Inhibition of sphingosine kinase activity ([32P]ATP, sphingosine-1-phosphate formation). The class given is biochemical. To be noted: compared with dimethylsphingosine; 37° C. for 20 min; FIG. 3. As to the method: The same experiment was performed on dimethylsphingosine to compare with the effect of dimethylphytosphingosine of the present invention. Sphingosine kinase assay buffer was prepared as follows to determine an activity of sphingosine kinase: 20 mM Tris buffer, pH 7.2, 10 mM MgCl2, 20% glycerol, 1 mM dithiothreitol, 1 mM Na3VO4, 15 mM NaF, […] leupeptin and aprotinin, 1 mM PMSF and 0.5 mM 4-deoxypyridoxine.
The reaction was 200 μl, each 50 μM dimethylsphingosine and dimethylphytosphingosine dissolved in 0.25% Triton X-100, 10 ng of sphingosine kinase from mouse and 1 mM [32P] ATP were added, and reacted at 37° C. for 20 min. After completion of the reaction, the reaction was terminated by adding 20˜50 μl of 1N HCl. Following termination, lipid was separated and purified by adding 1 ml of chloroform, and dried under nitrogen gas. An inhibitory effect against sphingosine kinase was found by measuring isotope with scintillation counter and then determining produced sphingosine-1-phosphate. In the graph, indicated in FIG. 3, Y axis represents CPM and X axis represents concentration (μM).

The test system of experiment [3] is HL60 cell. The experiment is described as follows: MTT assay, apoptosis inducing effect on HL60 cell. The class given is cell-based. To be noted: 0.5 M˜[…], 24 hrs, FIG. 4. As to the method:
An apoptosis inducing effect of N,N-dimethylphytosphingosine was assayed. Anti-cancer effect is expressed through various signal transduction pathway depending on working mechanism and chemical structure, but consequently give rise to apoptosis which allows cells to be killed.
(§1) This experiment was performed by MTT assay. MTT (3-[4,5-Dimethylthiazol-2-yl]-2,5-diphenyltetrazolium) is a staining reagent displaying yellow color when it is dissolved in medium, but it is discolored to violet formazan by active dehydrogenase in mitochondria of viable cell. […] HL60 cell lines were seeded to 96-well plate at appropriate concentration, and incubated in 5% CO2 incubator at 37° C. for 24 hrs. Thereafter, individual sample to be assessed on apoptosis effect, i.e. phytosphingosine, C2 phytoceramide, tetraacetylphytosphingosine, C6 phytoceramide, C8 phytoceramide, C3 ceramide, sphinganine, dimethylsphingosine and dimethylphytosphingosine was diluted with serum free RPMI. Cells were treated with […]˜50 µM of the dilutions, and incubated for 24 hrs. MTT (final concentration: 0.5 mg/ml) was loaded to the individual well. After incubating for another 3 hrs and dissolving the staining reagent with pipette, the absorbance was measured at 570 nm.
A general note: Tetrazolium dyes change colour on reduction, which living cells bring about.

The test system of experiment [4] is HaCaT cell. The experiment can be described thus: MTT assay, apoptosis inducing effect on HaCaT cell. It counts as cell-based. The conditions noted are these: FIG. 5. As to the method:
as §1
This Experiment was carried out in an identical manner to that described for example 3, except for using HaCaT cell to induce apoptosis.

The subject of experiment [5] is LLC-PK1 cell. The experiment is described as follows: MTT assay, apoptosis inducing effect on LLC-PK1 cell. It counts as cell-based. The conditions noted are these: FIG. 6. As to the method:
as §1
This Experiment was carried out in an identical manner to that described for example 3, except for using LLC-PK1 cell to induce apoptosis.

Experiment [6] has as its system B104 cell. The experiment can be described thus: MTT assay, apoptosis inducing effect on B104 cell. It counts as cell-based. The conditions noted are these: FIG. 7. As to the method: as §1
This Experiment was carried out in a manner identical to that described for example 3, except for using B104 cell to induce apoptosis.

The subject of experiment [7] is MDA-MB-231 cell. The experiment can be described thus: MTT assay, apoptosis inducing effect on MDA-MB-231 cell. It counts as cell-based. The conditions noted are these: FIG. 8. As to the method: as §1
This Experiment was carried out in an identical manner to that described for example 3, except for using MDA-MB-231 cell to induce apoptosis.

In experiment [8] the test system is histone component presented in nucleosome of cytoplasm of cell lysates. The experiment is described as follows: Anti-histone antibody binding ELISA (mono- or oligosome detection). The conditions noted are these: FIG. 10. It counts as cell-based. From the text:
This experiment was based on the theory of ELISA. Briefly, Mono- or oligosome of degraded nucleic acid in cytoplasm can be detected by means of monoclonal antibodies which are specific for histones (H2A, H2B, H3 and H4) and single-stranded or double-stranded DNA. Cells which apoptosis was induced activated Ca2+ and Mg2+-dependent endonuclease, and the enzyme degraded adjacent double stranded DNA to form mono- or oligosome. On this account, histone which had been compactly bound to the DNA in nucleus was exposed to outside.
First, anti-histone antibody was immobilized to 96 well plate. Coating solution was added, and reaction was performed at ambient temperature for 1 hr. Then, each sample was treated to obtain cell lysates, and histone component presented in nucleosome of cytoplasm of cell lysates was adhered to the 96 well plate to which anti-histone antibody was immobilized. Above procedure was performed at 15˜25° C. for 90 min. Then, anti-DNA-peroxidase (POD) was bound to DNA part of nucleosome of cytoplasm. This procedure was performed at ambient temperature for 90 min. Unbound peroxidase conjugate was washed, ABTS(2,2′-azino-di-[3-ethylbenzthiazoline sulfonate]) was added as an substrate, reacted for 10˜20 min, and then absorbance was measured at 405 nm.

Experiment [9] has as its system protein kinase C(PKC). The experiment is described as follows: PKC inhibition effect using epidermis cells of rat. The conditions noted are these: 100 μM and 400 μM; compared with other sphingolipid derivatives; FIG. 11. The class given is cell-based. As to the method: The present inventors assessed an inhibitory effect of N,N-dimethylphytosphingosine on protein kinase C(PKC) using epidermis cells of rat. Epidermis cells were cultured to 2×10^7 cell/ml. N,N-dimethylphytosphingosine and other sphingolipid derivatives (100 μM and 400 μM respectively) were added, and reacted. The cells were washed with PBS and disrupted with homogenizer. The disruption of cells was centrifuged, and the supernatant was passed through DE52 column to obtain a portion containing protein kinase C. For activated PKC reaction, a tube containing 5 μl of PKC coactivation 5× buffer, PKC activation 5× buffer, PKC biotinylated peptide substrate, [32P]ATP mix respectively were prepared as a control. Also, other individual tubes containing 5 μl of PKC coactivation 5× buffer, control 5× buffer, PKC biotinylated peptide substrate, [32P]ATP mix were prepared further containing 5 μl of the relevant enzyme in each tube. The reaction was performed at 30° C. for 5 min. Thereafter, terminating solution (12.5 μl) was added to quench the reaction. The reaction solution (10 μl) was dropped on SAM2™ membrane, washed with 2 M NaCl (1×, 30 seconds), 2 M NaCl (3×, 2 min), 1% H3PO4 and 2M NaCl solution (4×, 2 min), and distilled water (2×, 30 seconds), dried and then measured isotope to assess the effect of PKC inhibition. The results were in FIG. 11. […]

The test system of experiment [10] is Bacillus licheniformis. The experiment is described as follows: Antibacterial effect, colony counting. The class given is cell-based. To be noted: B. licheniformis, FIG. 12. As to the method:
(§2) The present inventors performed experiment using Bacillus licheniformis (Gram positive bacteria) and E. coli(Gram negative bacteria) to test an antibacterial activity of N,N-dimethylphytosphingosine. In this experiment, autoclaved LB (bactopeptone 10 g/l, yeast extracts 5 g/l, and sodium chloride 10 g/l) or TS (triptone 15 g/l, soitone 5 g/l, and sodium chloride 5 g/l) was used as culture medium, and cultured at 30° C. or 37° C. for 2-3 days. After culturing, an antibacterial capacity was measured by counting the number of cells. […] Each microbe was cultured, diluted successively with 10-fold, smeared on the medium, cultured again, and then dilution rate which formed 30-300 populations per plate medium was determined. After culturing each microbe, the culture was diluted with the determined dilution rate. At this time, 0.85% NaCl was used as a diluted solution. A sample which was prepared by above mentioned method was diluted successively with a solvent for preparing the sample. After obtaining the desired concentration, 1 ml of the diluted sample was added to 9 ml of a diluted solution of microbes, and then mixed thoroughly. After standing at 30° C. or 37° C. for 1 hr (with mixing occasionally), each 100 μl was smeared on the culture medium. After culturing under individual condition, the number of population was measured.

The subject of experiment [11] is E. coli. The experiment is described as follows: Antibacterial effect, colony counting. To be noted: FIG. 12. The class given is cell-based. As to the method:
as §2

In the case of `CCCCCCCCCCCCC/C=C/[C@@H](O)[C@H](CO)NC(C)=O` [C2-ceramide, N-acylsphingosine, reference compound], in experiment [1], the “concentration at which DNA fragmentation was induced” value is 25.0 µM.

For the compound `CCCCCCCCCCCCCCC(O)C(O)C(CO)N(C)C` (centres unmarked) [N,N-dimethylphytosphingosine], in experiment [2], the “inhibitory effect against sphingosine kinase (produced sphingosine-1-phosphate, CPM)” value was “more strong inhibitory effect than that of dimethylsphingosine”. For the same compound, the “cell death (MTT assay)” value in experiment [3], in experiment [4], in experiment [5], in experiment [6] and in [7] was “induced cell death” each time. Besides, the “cell death effect compared to dimethylsphingosine” value in experiment [4], in experiment [5], in [6] and in experiment [7] was “far superior to that of dimethylsphingosine” throughout. Also, the “DNA fragmentation (electrophoresis), result in words” value in experiment [1] (DMPS 12.5-50.0 μM, C2 ceramide and CLA ceramide 25.0 and 50.0 μM) is “obvious ladder-like DNA fragmentation at a lower concentration compared to C2-ceramide”. Moreover, the “concentration at which DNA fragmentation was induced” value in [1] came out at 25.0 µM. Further, the “degree of DNA fragmentation compared to C2 ceramide” value in experiment [1] is on record as “stronger than C2 ceramide”. The “absorbance (A405 nm-A490 nm), anti-histone antibody binding” value in [8] is “higher absorbance (A405 nm-A490 nm) than other controls”. Besides, the “inhibitory effect on PKC” value in [9] is reported as “stronger inhibitory effect than any other compound”. The “amount of colonies reduced to” value in experiment [10] (1 μg/ml) and in experiment [11] (1 μg/ml) was 40% in each case. Further, the number of colonies result in experiment [10] and in [11] was “reduced” each time.
